# Test results as given in patent EP4389827A1, “AMINOGLYCOSIDE-LINKED PHOTOSENSITIZERS” (Centre National de la Recherche Scientifique, priority 2022, dated 2024).
# Where two headings read alike, the source gives them in different places.
# Tests used:
# [1] = test system: P. aeruginosa PAO1; experiment: Antibacterial photodynamic therapy on biofilm cells; format: cell-based, Pseudomonas aeruginosa; conditions: - irradiation
# Text: (§1) Compounds Neo-Ce6 and Tobra-Ce6 caused strong drop in survival for biofilms of A. baumannii […], P. aeruginosa species and S. aureus Mu50. […] Tobra-Ce6 had its strongest effect on A. baumannii DSM30011 with more than 4 log10 CFU/mL drop in survival and a drop of 1.7 log10 CFU/mL in P. aeruginosa PA14. Table 2: aPDT results for biofilm cells expressed in drop in the log10 CFU/mL compared to controls.
# [2] = test system: P. aeruginosa PA14; experiment: as above; format: cell-based, Pseudomonas aeruginosa; conditions: - irradiation
# Text: as §1
# [3] = test system: S. aureus USA300; experiment: Minimal inhibitory concentration (EUCAST), with or without 660 nm irradiation; format: cell-based; conditions: Staphylococcus aureus, USA300, light or radiation study, 18 h, aminoglycoside alone, irradiation state not given
# Procedure: (§2) Acinetobacter baumannii DSM30011, Bacillus subtilis 168, Pseudomonas aeruginosa PA14, P. aeruginosa PAO1, Staphylococcus aureus Mu50, S. aureus Newman and S. aureus USA300 were all grown in MHB-CA at 37°C with an agitation of 180 rpm. Candida albicans SC5314 was grown in yeast extract peptone dextrose broth at 35°C with an agitation of 180 rpm.
# (§3) Minimal inhibitory concentrations (MICs) for selected bacteria were investigated according to the EUCAST guidelines. Serial dilutions of the compounds, photosensitizers and aminoglycosides were made in MHB-CA in 384-well plates. Stationary-phase cells were diluted in MHB-CA to have a final concentration of 5.5 × 10^5 CFU/mL. Samples were incubated in the dark for 20 minutes at 37°C and either irradiated at 660 nm for 30 minutes with a LED device or kept in the dark. Irradiated samples received a total of 168 mJ/mm^2. Plates were then incubated at 37°C for 18 hours and MICs were evaluated visually. Triplicates were done and the synergy, or fractional inhibitory concentration (FIC), was calculated according to Doern et al., 2014: FIC = (MIC of AB)/(MIC of A) + (MIC of AB)/(MIC of B) [formula]
# [4] = test system: S. aureus Mu50; experiment: as above; format: cell-based; conditions: Staphylococcus aureus, MU50, light or radiation study, 18 h
# Procedure: as §2, §3
# [5] = test system: S. aureus Newman; experiment: as above; format: cell-based, Staphylococcus aureus; conditions: Staphylococcus aureus, NEWMAN, light or radiation study, 18 h
# Procedure: as §2, §3
# [6] = test system: C. albicans SC5314; experiment: Minimal inhibitory concentration, with or without 660 nm irradiation; format: cell-based; conditions: Candida albicans, SC5314, light or radiation study, 18 h
# Procedure: as §2, §3
# [7] = test system: A. baumannii DSM30011; experiment: Antibacterial photodynamic therapy on biofilm cells; format: cell-based, Acinetobacter baumannii; conditions: - irradiation
# Text: as §1
# [8] = test system: A. baumannii DSM30011; experiment: Minimal inhibitory concentration (EUCAST), with or without 660 nm irradiation; format: cell-based, Acinetobacter baumannii; conditions: Acinetobacter baumannii, DSM30011, light or radiation study, 18 h
# Procedure: as §2, §3
# [9] = test system: B. subtilis 168; experiment: as above; format: cell-based, Bacillus subtilis; conditions: Bacillus subtilis, 168, light or radiation study, 18 h
# Procedure: as §2, §3
# [10] = test system: S. aureus Newman; experiment: Antibacterial photodynamic therapy on biofilm cells; format: cell-based, Staphylococcus aureus; conditions: - irradiation
# Text: as §1
# [11] = test system: S. aureus USA300; experiment: as above; format: cell-based, Staphylococcus aureus; conditions: - irradiation
# Text: as §1
# [12] = test system: S. aureus Mu50; experiment: as above; format: cell-based, Staphylococcus aureus; conditions: - irradiation
# Text: as §1
# [13] = test system: P. aeruginosa PAO1; experiment: Minimal inhibitory concentration (EUCAST), with or without 660 nm irradiation; format: cell-based, Pseudomonas aeruginosa; conditions: Pseudomonas aeruginosa, PAO1, light or radiation study, 18 h
# Procedure: as §2, §3
# [14] = test system: P. aeruginosa PA14; experiment: as above; format: cell-based, Pseudomonas aeruginosa; conditions: Pseudomonas aeruginosa, PA14, light or radiation study, 18 h
# Procedure: as §2, §3
# [15] = test system: S. aureus Newman; experiment: Antibacterial photodynamic therapy on planktonic cells (CFU count); format: cell-based, Staphylococcus aureus; conditions: non-irradiated samples (Figure 3d)
# Procedure: as §2
# (§4) Cells were brought to stationary phase by incubating them in MHB-CA for at least 18 hours at 37°C with 180 rpm and diluted to an optical density of 1.0 just before the experiment. Cells were incubated for 20 minutes with either the compounds, photosensitizers alone, or aminoglycosides alone. Unless stated otherwise, a concentration of 10 µM was used for all experiments and samples were irradiated for 30 minutes at 660 nm with the Solis-660C lamp from ThorLabs, receiving a total of 5 J/mm^2. After illumination, cells were washed with phosphate-buffered saline (PBS) 1X, serially diluted and plated on Mueller-Hinton agar. The next day, colony forming units (CFUs) were counted.
# [16] = test system: S. aureus Mu50; experiment: as above; format: cell-based, Staphylococcus aureus; conditions: non-irradiated samples (Figure 3b)
# Procedure: as §2, §4
# [17] = test system: K. pneumoniae LM21; experiment: Minimal inhibitory concentration (EUCAST), with or without 660 nm irradiation; format: cell-based; conditions: Klebsiella pneumoniae, LM21, light or radiation study, 18 h
# Procedure: as §3
# [18] = test system: E. coli pET-29; experiment: as above; format: cell-based; conditions: Escherichia coli, PET29, light or radiation study, 18 h; aminoglycoside alone, irradiation state not given
# Procedure: as §3
# [19] = test system: E. coli KanR; experiment: as above; format: cell-based; conditions: Escherichia coli, light or radiation study, 18 h
# Procedure: as §3
# [20] = test system: S. aureus USA300 persister cells; experiment: Antibacterial photodynamic therapy on persister cells; format: cell-based, Staphylococcus aureus; conditions: persister cells (6 hours, 2 mM neomycin); aPDT at 10 µM, 5 J/mm^2 (Figure 6a)
# Procedure: Persister plateau and AG concentration varied from one species to another. In S. aureus USA300, a stable plateau was obtained following 6 hours of incubation with 2 mM of neomycin. […] This control is crucial to make sure that a persister state has been achieved. […] As there are no significant differences between irradiated and non-irradiated samples, however, the production of singlet oxygen may not be the factor leading to cell death. In S. aureus Newman, cells were treated for 24 hours with 1 mM of neomycin. […] Although this synergy does exist, like in S. aureus USA300, there is no significant difference in survival for irradiated and non-irradiated samples, except for Ce6.
# [21] = test system: P. aeruginosa PAO1; experiment: Antibacterial photodynamic therapy on planktonic cells (CFU count); format: cell-based; conditions: Pseudomonas aeruginosa, PAO1, light or radiation study, aminoglycoside alone, Figure 5d (without irradiation), read-out: drop of survival
# Procedure: as §2, §4
# [22] = aminoglycoside alone, irradiation state not given, read-out: MIC
structure (smiles),measurement,setting,value
"NC[C@@H]1O[C@H](O[C@H]2[C@@H](O)[C@H](O[C@@H]3[C@@H](O)[C@H](N)C[C@H](N)[C@H]3O[C@H]3O[C@H](CN)[C@@H](O)[C@H](O)[C@H]3N)O[C@@H]2CO)[C@H](N)[C@@H](O)[C@@H]1O [Neomycin, neomycin]",drop in the log10 CFU/mL compared to controls,[1],0.28 log10 CFU/mL
same,drop in the log10 CFU/mL compared to controls,[2],0.01 log10 CFU/mL
same,MIC,[3],4 µM
same,MIC,[4],> 512 µM
same,MIC,[5],8 µM
same,MIC,[6],> 512 µM
same,drop in the log10 CFU/mL compared to controls,[7],1.33 log10 CFU/mL
same,MIC,[8],8 µM
same,MIC,[9],0.4 µM
same,drop in the log10 CFU/mL compared to controls,[10],-0.07 log10 CFU/mL
same,drop in the log10 CFU/mL compared to controls,[11],0.16 log10 CFU/mL
same,drop in the log10 CFU/mL compared to controls,[12],0.18 log10 CFU/mL
same,MIC,[13],16 µM
same,MIC,[14],4 µM
same,drop in CFUs (in words),[15],does not lead to significantly less survival
same,drop in CFUs (in words),[16],does not lead to significantly less survival
same,MIC,[17],2 µM
same,MIC,[18],128 to 256 µM
same,MIC,[19],> 512 µM
same,persister cell survival (in words),[20],no significant drop in survival
"NC[C@H]1O[C@H](O[C@H]2[C@H](O)[C@@H](O[C@H]3O[C@H](CO)[C@@H](O)[C@H](N)[C@H]3O)[C@H](N)C[C@@H]2N)[C@H](N)C[C@@H]1O [Tobramycin, tobramycin]",drop in the log10 CFU/mL compared to controls,[1],0.39 log10 CFU/mL
same,drop in the log10 CFU/mL compared to controls,[2],0.79 log10 CFU/mL
same,MIC,[3],4 µM
same,MIC,[4]; [22],> 512 µM
same,MIC,[5]; [22],4 µM
same,drop in the log10 CFU/mL compared to controls,[7],0.93 log10 CFU/mL
same,MIC,[8]; [22],4 to 8 µM
same,log reduction at 10 µM,[21],~2.3
same,drop in the log10 CFU/mL compared to controls,[10],0.25 log10 CFU/mL
same,drop in the log10 CFU/mL compared to controls,[11],0.26 log10 CFU/mL
same,drop in the log10 CFU/mL compared to controls,[12],-0.02 log10 CFU/mL
same,MIC,[13]; [22],0.5 to 1 µM
same,MIC,[14]; [22],1 to 2 µM
